Assay results published in patent publication US20250163052A1, “cGAS INHIBITORS AND USES THEREOF” (Cornell University, priority 2022, published 2025).
Like-named read-outs stand apart in the source and are kept apart here. Blank lines part the entries; values can stand above or below the compound they belong to.

Experiments:
[1] = tested on: THP1 cells; test: THP1-Dual cells, cell viability (CellTiter-Glo); type: cell-based
Summary of the method: (§1)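 THP1-Dual cells were treated with compounds at various dilutions for 4 h, then transfected with DNA (2 ug/ml) using lipofectamine and incubated overnight. Supernatant Ifnb reporter was read with Quantiluc and nfkb reporter with Quantiblue; viability was measured by CellTiter-Glo.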

[2] = biological target: h-cGAS (Homo sapiens, UniProt Q8N884); test: Cell-free human cGAS enzyme inhibition assay (ATP depletion, Kinase-Glo Max); type: biochemical; settings: 3 h; for inhibition at 10 µM: read-out: h-cGAS, conc. 10 μM
h-cGAS, sequence (Q8N884 whole entry): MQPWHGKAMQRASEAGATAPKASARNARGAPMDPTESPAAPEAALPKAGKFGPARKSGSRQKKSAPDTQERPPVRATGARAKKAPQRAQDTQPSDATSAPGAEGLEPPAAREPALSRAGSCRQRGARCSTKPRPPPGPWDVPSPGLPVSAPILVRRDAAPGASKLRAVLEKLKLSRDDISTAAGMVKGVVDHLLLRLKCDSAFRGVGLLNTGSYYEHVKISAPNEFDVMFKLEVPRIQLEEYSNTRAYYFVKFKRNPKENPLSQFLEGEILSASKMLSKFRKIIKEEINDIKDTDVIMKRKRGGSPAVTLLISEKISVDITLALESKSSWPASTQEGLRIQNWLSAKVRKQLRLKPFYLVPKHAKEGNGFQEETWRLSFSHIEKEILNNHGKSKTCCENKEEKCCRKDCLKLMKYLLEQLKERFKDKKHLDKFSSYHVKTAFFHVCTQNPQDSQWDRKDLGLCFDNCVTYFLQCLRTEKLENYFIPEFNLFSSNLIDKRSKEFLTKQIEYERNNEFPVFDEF

[3] = biological target: 5HT2B (Homo sapiens, UniProt P41595); test: Safety panel screening, 5HT2B Ca2+ mobilization; type: cell-based; settings: for inhibition at 10 µM: antagonist mode, read-out: Antagonist Mode Mean percentage inhibition (%) at 10 μM, 5HT2B
5HT2B, sequence (P41595 whole entry, species assumed): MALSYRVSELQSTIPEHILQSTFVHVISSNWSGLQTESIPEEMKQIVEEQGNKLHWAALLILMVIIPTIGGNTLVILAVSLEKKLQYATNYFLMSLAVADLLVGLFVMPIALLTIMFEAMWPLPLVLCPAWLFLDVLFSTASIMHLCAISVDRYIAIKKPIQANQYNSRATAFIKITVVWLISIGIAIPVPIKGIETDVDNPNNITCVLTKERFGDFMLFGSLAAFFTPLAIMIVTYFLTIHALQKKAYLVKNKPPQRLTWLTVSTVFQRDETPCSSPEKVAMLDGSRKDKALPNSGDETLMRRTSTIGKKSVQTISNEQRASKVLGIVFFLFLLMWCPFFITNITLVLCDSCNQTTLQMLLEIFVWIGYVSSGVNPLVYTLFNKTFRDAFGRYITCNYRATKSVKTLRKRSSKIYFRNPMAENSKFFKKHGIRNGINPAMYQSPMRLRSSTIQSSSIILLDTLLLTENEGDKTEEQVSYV

[4] = Pharmacokinetic study, plasma and brain PK parameters after I.P. dosing; type: in vivo, mouse; settings: 25 mg/Kg I.P.; for Kp / AUC(0-inf) / AUC(0-t) / MRT inf / half-life / Tmax / Cmax: mouse, ip; for Kp: brain/plasma, 25 mg/kg
Experimental: To test pharmacokinetics, TDI-6570 ([…] solution in water containing 0.2% Tween 80) was administered to 8-weeks old CD-1 male mice (n=3 for each time point) intraperitoneally (IP) and both plasma (EDTA-K2) and brain tissues were collected at various time points (0.5, 2, 4, 8 and 24 hours post drug administration). Transcardial perfusion were performed with saline prior to brain collection. Bioanalysis of brain tissue and plasma extracts were performed by LC-MS/MS.

[5] = biological target: SET (Homo sapiens, UniProt P31645); test: Safety panel screening, serotonin transporter neurotransmitter uptake; type: cell-based; settings: read-out: Mean percentage inhibition (%) at 10 μM, SET
SET, sequence (P31645 whole entry): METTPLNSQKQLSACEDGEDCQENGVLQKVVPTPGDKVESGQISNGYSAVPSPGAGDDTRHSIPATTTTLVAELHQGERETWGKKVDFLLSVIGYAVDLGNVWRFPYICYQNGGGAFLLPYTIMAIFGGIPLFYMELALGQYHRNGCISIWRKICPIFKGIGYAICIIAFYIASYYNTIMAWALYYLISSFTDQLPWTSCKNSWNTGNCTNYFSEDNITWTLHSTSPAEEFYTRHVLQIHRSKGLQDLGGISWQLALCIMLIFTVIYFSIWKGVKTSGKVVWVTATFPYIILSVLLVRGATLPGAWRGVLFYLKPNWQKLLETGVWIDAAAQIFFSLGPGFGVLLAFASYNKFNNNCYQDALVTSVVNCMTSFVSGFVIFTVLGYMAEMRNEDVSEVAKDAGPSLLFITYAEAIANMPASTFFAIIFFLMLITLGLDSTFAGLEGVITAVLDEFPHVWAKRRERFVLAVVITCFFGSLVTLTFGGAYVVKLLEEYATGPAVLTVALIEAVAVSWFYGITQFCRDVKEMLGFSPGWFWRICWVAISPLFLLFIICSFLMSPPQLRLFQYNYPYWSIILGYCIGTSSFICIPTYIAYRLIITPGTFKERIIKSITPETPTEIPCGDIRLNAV

[6] = tested on: NFkB-SEAP; test: THP1-Dual cells transfected with DNA, nfkb expression (Quantiblue); type: cell-based; settings: Homo sapiens; for inhibition at 10 µM: THP-1, 10 μM; for inhibition at 30 µM: THP-1, 30 μM
Summary of the method: as §1

[7] = Metabolic stability in mouse liver microsomes
[8] = Protein binding in mouse brain homogenates; type: in vitro ADME; settings: for recovery at 6 h / fraction unbound at 6 hr: brain homogenate; for fraction unbound at 6 hr: read-out: % BoundBrain (converted)
[9] = tested on: IFNB; test: THP1-Dual cells transfected with DNA, Ifnb expression (Quantiluc); type: cell-based; settings: Homo sapiens; for inhibition at 10 µM: THP-1, 10 μM; for inhibition at 30 µM: THP-1, 30 μM
Summary of the method: as §1

[10] = biological target: m-cGAS (Mus musculus, UniProt Q8C6L5); test: Cell-free mouse cGAS enzyme inhibition assay (ATP depletion, Kinase-Glo Max); type: biochemical; settings: 1 h; for inhibition at 10 µM: read-out: m-cGAS, conc. 10 μM
m-cGAS, sequence (Q8C6L5 whole entry): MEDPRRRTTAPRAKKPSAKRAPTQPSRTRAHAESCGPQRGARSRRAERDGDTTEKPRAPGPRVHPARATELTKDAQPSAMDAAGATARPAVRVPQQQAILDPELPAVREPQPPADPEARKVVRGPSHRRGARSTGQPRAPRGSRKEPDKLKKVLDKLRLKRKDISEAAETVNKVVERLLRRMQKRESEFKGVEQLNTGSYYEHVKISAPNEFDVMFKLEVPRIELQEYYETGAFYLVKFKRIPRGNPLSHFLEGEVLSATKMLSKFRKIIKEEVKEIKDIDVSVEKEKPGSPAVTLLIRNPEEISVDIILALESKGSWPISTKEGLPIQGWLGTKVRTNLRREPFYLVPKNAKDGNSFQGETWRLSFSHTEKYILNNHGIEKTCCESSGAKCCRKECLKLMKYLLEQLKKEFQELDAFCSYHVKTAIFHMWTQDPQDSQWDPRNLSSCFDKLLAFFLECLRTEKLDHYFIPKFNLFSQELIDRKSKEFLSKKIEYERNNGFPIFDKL

[11] = biological target: hERG (Homo sapiens, UniProt Q12809); test: Safety panel screening, hERG automated patch clamp; type: cell-based; settings: read-out: Mean percentage inhibition (%) at 10 μM, hERG
hERG, sequence (Q12809 whole entry): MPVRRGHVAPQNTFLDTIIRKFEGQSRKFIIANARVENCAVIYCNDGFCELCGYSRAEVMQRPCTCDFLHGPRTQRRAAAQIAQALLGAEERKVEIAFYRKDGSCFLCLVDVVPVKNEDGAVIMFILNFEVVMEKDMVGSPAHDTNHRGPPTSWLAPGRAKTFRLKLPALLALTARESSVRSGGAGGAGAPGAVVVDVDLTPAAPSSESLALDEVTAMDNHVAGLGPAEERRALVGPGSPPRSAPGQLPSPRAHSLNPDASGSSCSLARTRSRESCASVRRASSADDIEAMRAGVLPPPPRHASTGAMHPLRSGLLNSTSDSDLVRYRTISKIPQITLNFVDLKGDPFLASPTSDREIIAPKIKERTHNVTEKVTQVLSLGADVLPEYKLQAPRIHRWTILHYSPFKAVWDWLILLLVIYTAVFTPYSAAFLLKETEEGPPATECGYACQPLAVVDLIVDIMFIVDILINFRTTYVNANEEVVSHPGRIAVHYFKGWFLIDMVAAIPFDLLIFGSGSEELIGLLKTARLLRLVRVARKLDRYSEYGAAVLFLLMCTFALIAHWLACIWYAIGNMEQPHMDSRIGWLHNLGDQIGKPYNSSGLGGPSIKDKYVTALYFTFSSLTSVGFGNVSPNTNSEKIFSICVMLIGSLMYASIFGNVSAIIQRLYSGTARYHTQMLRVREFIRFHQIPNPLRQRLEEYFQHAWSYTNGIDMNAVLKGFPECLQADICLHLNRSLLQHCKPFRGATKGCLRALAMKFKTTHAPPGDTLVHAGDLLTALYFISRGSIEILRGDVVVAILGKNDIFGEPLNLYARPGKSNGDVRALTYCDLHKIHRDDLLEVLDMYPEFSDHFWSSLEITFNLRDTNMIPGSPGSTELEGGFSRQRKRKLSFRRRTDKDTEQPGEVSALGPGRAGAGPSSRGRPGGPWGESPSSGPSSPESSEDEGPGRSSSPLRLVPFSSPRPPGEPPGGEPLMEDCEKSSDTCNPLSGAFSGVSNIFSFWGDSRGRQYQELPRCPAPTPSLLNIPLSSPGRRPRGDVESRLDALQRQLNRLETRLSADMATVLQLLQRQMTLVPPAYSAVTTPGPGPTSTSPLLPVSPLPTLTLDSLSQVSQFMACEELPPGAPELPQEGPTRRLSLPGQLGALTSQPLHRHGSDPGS

[12] = biological target: PDE4D2 (Homo sapiens, UniProt Q08499); test: Safety panel screening, PDE4D2 IMAP; type: biochemical; settings: read-out: Mean percentage inhibition (%) at 10 μM, PDE4D2
PDE4D2, sequence (Q08499 303-809): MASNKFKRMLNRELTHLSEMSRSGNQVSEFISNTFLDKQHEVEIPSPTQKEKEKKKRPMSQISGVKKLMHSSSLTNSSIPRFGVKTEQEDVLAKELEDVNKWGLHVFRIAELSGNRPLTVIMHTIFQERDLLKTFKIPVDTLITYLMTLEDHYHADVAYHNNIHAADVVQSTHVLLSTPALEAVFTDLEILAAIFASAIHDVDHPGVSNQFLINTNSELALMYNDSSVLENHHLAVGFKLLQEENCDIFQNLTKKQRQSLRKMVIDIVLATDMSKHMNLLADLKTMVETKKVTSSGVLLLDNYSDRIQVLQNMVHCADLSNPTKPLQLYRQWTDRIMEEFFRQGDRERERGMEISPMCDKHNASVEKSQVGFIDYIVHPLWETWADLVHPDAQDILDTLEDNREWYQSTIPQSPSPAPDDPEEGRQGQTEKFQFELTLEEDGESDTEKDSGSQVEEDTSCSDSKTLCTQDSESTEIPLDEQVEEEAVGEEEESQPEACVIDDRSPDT

[13] = biological target: D1 (Homo sapiens, UniProt P21728); test: Safety panel screening, D1 cAMP assay; type: cell-based; settings: for inhibition at 10 µM: antagonist mode, read-out: Antagonist Mode Mean percentage inhibition (%) at 10 μM, D1
D1, sequence (P21728 whole entry): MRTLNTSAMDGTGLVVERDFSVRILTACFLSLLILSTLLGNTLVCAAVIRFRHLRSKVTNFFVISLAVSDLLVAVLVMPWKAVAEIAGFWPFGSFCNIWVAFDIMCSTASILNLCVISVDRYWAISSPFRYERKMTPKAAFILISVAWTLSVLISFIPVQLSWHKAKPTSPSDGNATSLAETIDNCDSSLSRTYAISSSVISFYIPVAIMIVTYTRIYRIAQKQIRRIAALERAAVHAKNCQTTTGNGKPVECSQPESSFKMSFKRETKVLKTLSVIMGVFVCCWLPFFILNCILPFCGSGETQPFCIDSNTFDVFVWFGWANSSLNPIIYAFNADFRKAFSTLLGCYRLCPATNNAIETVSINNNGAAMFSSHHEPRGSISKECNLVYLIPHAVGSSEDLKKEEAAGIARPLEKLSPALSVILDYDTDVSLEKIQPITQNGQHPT

[14] = read-out: AUClast Ratio (brain/plasma)
[15] = read-out: Cmax Ratio (brain/plasma)
[16] = brain, read-out: AUCInf (Brain)
[17] = brain, read-out: AUClast (Brain)
[18] = brain, read-out: MRTInf_obs (Brain)
[19] = brain, read-out: T1/2 (Brain) (converted)
[20] = plasma, read-out: AUCInf (plasma)
[21] = plasma, read-out: AUClast (plasma)
[22] = plasma, read-out: MRTInf_obs (plasma)
[23] = plasma, read-out: T1/2 (plasma) (converted)
[24] = plasma, read-out: Tmax (plasma)

inhibition at 1 µM ([2]; read-out: h-cGAS, conc. 1 μM): 0 to 24%
inhibition at 10 µM [2]: 50 to 74%
AUC_%Extrap_obs (Brain) ([4]; brain): 0.813%
AUClast/D (Brain) ([4]; brain): 5081 mg·h/mL
Cmax (Brain) ([4]; brain): 19853 ng/mL
Kp [4, 14]: 3.79
Kp [4, 15]: 3.14
AUC(0-inf) [4, 16]: 128000 ng·h/mL
AUC(0-t) [4, 17]: 127000 ng·h/mL
MRT inf [4, 18]: 4.69 h
half-life [4, 19]: 3.45 h
Tmax ([4]; brain, read-out: Tmax (Brain)): 2 h
Cmax ([4]; plasma): 6320 ng/mL
AUC(0-inf) [4, 20]: 33500 ng·h/mL
AUC(0-t) [4, 21]: 33500 ng·h/mL
MRT inf [4, 22]: 4.95 h
half-life [4, 23]: 4.53 h
Tmax [4, 24]: 1 h
AUC_%Extrap_obs (plasma) ([4]; plasma): 0.0394%
AUClast/D (plasma) ([4]; plasma): 1339 mg·h/mL
Remaining (NCF = 60 min) ([7]; mouse liver microsomes, 60 min, no co-factor (no NADPH)): 94.7%
Remaining (T = 60 min) ([7]; mouse liver microsomes, 60 min with NADPH): 88.1%
CLint scaled ([7]; mouse, liver microsomes): 87.2 mL/min/kg
half-life ([7]; mouse, liver microsomes): 2 min
microsomal CLint ([7]; mouse, liver microsomes): 679 µL/min/mg
LogK [8]: >4.17
% Remaining at 6 hr [8]: 92.46%
recovery at 6 h [8]: < 91.1%
fraction unbound at 6 hr [8]: < 0.0001
inhibition at 10 µM [10]: 0 to 24%
Structure (SMILES): Cn1cc(-c2cc(Cl)c(Cl)c3sc4c(c23)CN(C(=O)CO)CC4)cn1 [Compound 48]
Cell viability 10 μM [1]: +++ (+, ++, and +++ mean the compound respectively shows 25-49%; 50-74%; or 75-100% viability to cells)
Cell viability 30 μM [1]: +++ (+, ++, and +++ mean the compound respectively shows 25-49%; 50-74%; or 75-100% viability to cells)
Agonist Mode Mean percentage activation (%) at 10 μM, 5HT2B [3]: −0.48%
inhibition at 10 µM [3]: 34.5%
inhibition at 10 µM [5]: 46.2%
inhibition at 10 µM [6]: < 24%
inhibition at 30 µM [6]: 50 to 74%
inhibition at 10 µM [9]: 25 to 49%
inhibition at 30 µM [9]: 50 to 74%
inhibition at 10 µM [11]: 63%
inhibition at 10 µM [12]: 56.4%
Agonist Mode Mean percentage activation (%) at 10 μM, D1 [13]: 4.36%
inhibition at 10 µM [13]: 6.62%

inhibition at 10 µM [2]: 25 to 49%
AUC_%Extrap_obs (Brain) ([4]; brain): 1.62%
AUClast/D (Brain) ([4]; brain): 1354 mg·h/mL
Cmax (Brain) ([4]; brain): 3721 ng/mL
Kp [4, 14]: 0.989
Kp [4, 15]: 0.734
AUC(0-inf) [4, 16]: 34400 ng·h/mL
AUC(0-t) [4, 17]: 33900 ng·h/mL
MRT inf [4, 18]: 6.51 h
half-life [4, 19]: 3.86 h
Tmax ([4]; brain, read-out: Tmax (Brain)): 4 h
Cmax ([4]; plasma): 5070 ng/mL
AUC(0-inf) [4, 20]: 34300 ng·h/mL
AUC(0-t) [4, 21]: 34200 ng·h/mL
MRT inf [4, 22]: 4.76 h
half-life [4, 23]: 4.79 h
Tmax [4, 24]: 2 h
AUC_%Extrap_obs (plasma) ([4]; plasma): 0.0536%
AUClast/D (plasma) ([4]; plasma): 1370 mg·h/mL
LogK [8]: >4.72
% Remaining at 6 hr [8]: 108.27%
recovery at 6 h [8]: < 88.4%
fraction unbound at 6 hr [8]: < 2e-05
inhibition at 1 µM ([10]; read-out: m-cGAS, conc. 1 μM): 25 to 49%
inhibition at 10 µM [10]: 50 to 74%
Structure (SMILES): O=C(CO)N1CCc2c(sc3c(Cl)c(Cl)cc(-c4cn[nH]c4)c23)C1 [Compound 63]
Cell viability 10 μM [1]: +++ (+, ++, and +++ mean the compound respectively shows 25-49%; 50-74%; or 75-100% viability to cells)
Cell viability 30 μM [1]: +++ (+, ++, and +++ mean the compound respectively shows 25-49%; 50-74%; or 75-100% viability to cells)
Agonist Mode Mean percentage activation (%) at 10 μM, 5HT2B [3]: 22.36%
inhibition at 10 µM [3]: 49.4%
inhibition at 10 µM [5]: 15.2%
inhibition at 10 µM [6]: 25 to 49%
inhibition at 30 µM [6]: 75 to 100%
inhibition at 10 µM [9]: 50 to 74%
inhibition at 30 µM [9]: 75 to 100%
inhibition at 10 µM [11]: 49.7%
inhibition at 10 µM [12]: 73.2%
Agonist Mode Mean percentage activation (%) at 10 μM, D1 [13]: 6.19%
inhibition at 10 µM [13]: 3.08%
